Results on one compound are retold here after patent US10954287B2, “Ras binding peptides and methods of use” (Ra Pharmaceuticals, Inc., priority 2016, dated 2021).

Read-outs that look alike come from different tables or passages of the source.

Series [1] deals with T1, GST-tagged RAF-RBD and biotinylated H-Ras loaded with GMPPNP (Homo sapiens, UniProt P01112, G12V).
T1 construct: made in house; host or cells: E. coli BL21 (DE3)
Kind of series: TR-FRET of the interaction between GST-tagged RAF-RBD and biotinylated H-Ras. The class given is binding. To be noted: 12.5 nM Bio-H-Ras GMPPNP, 10 nM GST-RAF-RBD, FIG. 8C. The protocol: The interaction between GST-tagged RAF-RBD and biotinylated H-Ras (Bio-H-Ras) loaded with GMPPNP was detected using TR-FRET. Assays were performed in 384 well plates (Proxiplate-384 plus, Perkin Elmer, Waltham, Mass.). Bio-H-Ras GMPPNP was diluted in assay buffer (50 mM Tris-HCl, pH 7.5, 5 mM MgCl2, 0.0025% Tween-80, 1 mM DTT, and 50 nM GMPPNP) at a final concentration of 12.5 nM. R4000 was serially diluted in DMSO, then diluted in assay buffer and incubated with Bio-H-Ras GMPPNP for 30 minutes at room temperature (1% DMSO final). GST-RAF-RBD was added to the assay (10 nM final) and incubated 60 minutes at room temperature. Europium cryptate conjugated-anti-GST (donor; Perkin Elmer, Waltham, Mass.) and streptavidin conjugated to SureLight-Allophycocyanin (acceptor; Perkin Elmer, Waltham, Mass.) was added to the wells at final concentrations of 1 nM and 1.25 nM, respectively. Reaction mixtures were incubated at room temperature for 2 hours then detected using an EnVision Multilabel Plate Reader (Perkin Elmer, Waltham, Mass.) with excitation at 340 nm and emission at 615 nm (donor) and 665 nm (acceptor). FRET ratios (615 emission/665 emission) were calculated per well. Data was analyzed using GraphPad Prism, and IC50 values were generated by fitting dose response data to a 4 parameter fit sigmoidal dose response curve. […]
(TR-FRET usually uses a lanthanide donor and a delayed reading to cut background.)

The nature of series [2]: Compound stability in rat plasma. The series is classed as in vitro ADME. The conditions noted are these: serum (method text and assay name say plasma), 37° C., pH 7.4. As for the experimental part: Compounds were assayed for stability in mouse and rat plasma under the following conditions. Plasma was adjusted to pH 7.4. DMSO stocks at 10 mM concentration were prepared for the test compounds. Aliquots of the DMSO solutions were dosed into 1 mL of plasma, which had been pre-warmed to 37° C., at a final test compound concentration of 10 μM. The vials were kept in a benchtop Thermomixer® (Eppendorf, Hauppauge, N.Y.) for the duration of the experiment. Aliquots (100 μL) were taken at each timepoint and added to a 96-well plate that had been pre-filled with 300 μL of an acetonitrile solution containing mixture of the internal standards (metoprolol, propranalol and warfarin each at 500 ng/mL). Samples were stored at 4° C. until the end of the experiment. After the final timepoint was sampled, the plate was mixed and then centrifuged at 3,000 rpm for 10 minutes. Aliquots of the supernatant were removed and analyzed by LC-HRAMS.

Series [3] deals with T2, H-Ras (Homo sapiens, UniProt P01112, G12V).
T2 construct: made in house; host or cells: E. coli BL21 (DE3)
Kind of series: Differential scanning fluorimetry (DSF). The conditions noted are these: Ras 5 μM, peptide 20 μM, FIG. 8A. The class given is binding. The protocol:
Differential scanning fluorimetry (DSF) is based on denaturation of the protein in the absence or presence of a ligand, exposing hydrophobic residues that can be detected with high sensitivity with a fluorescent dye. […] DSF was performed on a CFX 96-well plate, real-time PCR instrument (Bio-Rad, Hercules, Calif.) according to Nettleship et al. [Nettleship, J. E., Brown, J., Groves, M. R., and Geerlof, A. (2008) Methods for protein characterization by mass spectrometry, thermal shift (ThermoFluor) assay, and multiangle or static light scattering. Methods Mol. Biol. 426: 299-318), the contents of which are incorporated herein by reference in their entirety]. SYPRO orange was purchased from Life Technologies (Carlsbad, Calif.). After incubation of Ras (5 μM) and peptide (20 μM) at room temperature for 15 minutes in 20 mM Tris-HCl (pH 8), 150 mM NaCl, 1 mM MgCl2, 2 mM DTT, and 0.2% dimethyl sulfoxide, SYPRO orange was added to the final concentration of 10× (original stock at 5000×). The mixture was subsequently heated in Bio-Rad CFX 96 PCR instrument from 25 to 95° C. in increments of 0.3° C./10 s. Fluorescence intensity was measured using excitation and emission wavelengths of 483 and 610 nm, respectively. Changes in protein thermal stability (ATm) upon peptide binding were analyzed by using Bio-Rad CFX Manager Software provided by the manufacturer.

The target in series [4] is T3, K-Ras G12D (Homo sapiens, UniProt P01116, G12D).
T3 construct: For K-Ras, the construct was full-length; made in house
Put plainly: Surface plasmon resonance (SPR) binding to immobilized K-Ras. The conditions noted are these: for Kd / kd / kon: 25° C.; for kon: read-out: ka. As for the experimental part:
Surface Plasmon Resonance (SPR) experiments were conducted at 25° C. using the ProteOn XPR36 system from BioRad Laboratories, Inc (Hercules, Calif.). […] Kinetic characterization of cyclomimetic binding was performed to determine kon, koff, and Kd. […] was co-injected with RAF-RBD to evaluate competitive binding. Data analysis was performed using BioRad ProteOn Manager software.
(In general: Surface plasmon resonance follows binding to a sensor surface in real time, without labels.)

As for `CCC[C@H](NC(C)=O)C(=O)N[C@H]1CSCc2cccc(c2)CSC[C@@H](C(N)=O)NC(=O)CN(C)C(=O)[C@H](Cc2ccc(F)cc2)N(C)C(=O)[C@H](Cc2ccc(O)cc2)NC(=O)[C@H](Cc2c[nH]c3ncccc23)NC(=O)[C@H](c2ccccc2)NC(=O)[C@H](C)N(C)C(=O)[C@H](Cc2cnc[nH]2)NC(=O)[C@H](CCCCN)NC(=O)[C@H](C(C)(C)C)NC(=O)[C@H](Cc2ccc(O)cc2)NC1=O` (relative stereo) [Compound R4000, ACE-NVA-CYS*-TYR-TBG-LYS-HIS-NMA-PHG-7AW-TYR-MFF-SAR-CYS*-NH2], the “blocking of H-Ras binding to RAF” value in series [1] is recorded as “does not block binding to RAF”. In series [2], the half-life (commonly the time needed for the level to fall by half in the phase considered) at 10 μM is 2.1 h. Moreover, the “Δ Tm” value in series [3] was “+11 °C”. In series [4] (K-Ras G12D loaded with GDP), the Kd (in general, the concentration at which binding is half-saturated) was determined as 4.4 nM; the kd is 0.003 s⁻¹; the kon was 680000 M⁻¹ s⁻¹. Moreover, in series [4] (K-Ras G12D loaded with GMPPNP), the Kd was 2.8 nM, the kd was found to be 0.0016 s⁻¹ and the kon was determined as 570000 M⁻¹ s⁻¹. Moreover, the “competitive binding on co-injection with RAF-RBD” value in series [4] (R4000 co-injected with RAF-RBD, FIG. 7A) is reported as “additive signals”.
